Assay results: patent US20110268818A1, “NGAL-BINDING SIDEROPHORES AND USE THEREOF TO TREAT IRON DEFICIENCY AND IRON OVERLOAD” (priority 2008, published 2011)
Where a name gives a salt, the structure may show the parent alone.

Key:
[1] = Siderophore:iron binding assay (paper chromatography); conditions: for Fe: Chromatography: 55Fe mobilised by compound on paper chromatogram developed in water, Yes/No
Text: Siderophore:Iron Binding Assay. To test whether candidates bound iron directly, candidates (1 nmole) were mixed with ^55Fe (1 pmole), and then separated bound from free ^55Fe using paper chromatography developed in water.
Paper chromatography: The Fe-Siderophore Binding Assay: The concept underlying the Ngal-siderophore-Fe binding assay is that the urinary molecule provides an iron binding siderophore, and that the Ngal protein provides the carrier which retains the siderophore:Fe on the 10 KDa filter. […] To directly test this idea, we will mix 55Fe with HMDB compounds and then separate bound from free 55Fe by using paper chromatography. […] The assay also provides an independent means to follow the purification of the urinary siderophore. Using this assay, we can measure the specific activity of the fractions to identify the peak activity, as well as to compare the urinary fraction with enterochelin to establish relative units of activity.

[2] = molecular target: T1, NGAL (Homo sapiens, UniProt P80188); assay: NGAL:siderophore:iron binding assay (retention on 10 kDa filter); conditions: for NGAL-siderophore-Fe binding activity (in words): iron retention by NGAL on filter
T1 construct: made in house; host or cells: E. coli BL-21
Experimental: NGAL:Siderophore:Iron Binding Assays. […] After 60 minutes, the mixture was washed 3 times (YM-10) or alternatively gel filtered (PD-10, GE Biosciences). Ent loaded NGAL served as a positive control. Ferric citrate (1 mM) or Ent:iron (500 μM) served as competitors of ^55Fe binding.
After 60 minutes at room temperature, the mixture was then washed 3 times on a 10-kDa membrane (Amicon YM-10; Millipore Corp.). Ngal loaded with iron-free enterochelin (rather than apo-Ngal) served as a positive control for iron capture. Ferric citrate (1 mM) or iron-loaded enterochelin (siderophore:Fe, […]) was used as a competitor of 55Fe binding.

[3] = apoNGAL 10 μM, 55Fe, compound 10 μM, pH 7.4, washed on 10 kDa filter

T1 sequence (P80188 21-198): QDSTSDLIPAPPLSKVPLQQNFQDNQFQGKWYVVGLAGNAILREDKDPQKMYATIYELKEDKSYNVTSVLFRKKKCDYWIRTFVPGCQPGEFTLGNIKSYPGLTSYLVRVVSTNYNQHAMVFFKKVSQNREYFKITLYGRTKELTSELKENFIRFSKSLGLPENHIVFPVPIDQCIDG

Fe: Chromatography [1]	NGAL: Chelator: Fe % Retention [2, 3]	NGAL-siderophore-Fe binding activity (in words) [2]	Compound	iron chelating activity by paper chromatography (in words) [1]	NGAL: Chelator: Fe % Retention ([2]; pH 7.4)
Yes	12%		NC(Cc1ccc(O)c(O)c1)C(=O)O (racemic) [3,4-Dihydroxy-DL-phenylalanine]	active	
Yes	3%		Nc1c(O)cccc1C(=O)CC(N)C(=O)O (racemic) [3-Hydroxy-DL-kynurenine]	active	
No	7%		O=C1CC(C(=O)O)NC(=O)N1 (racemic) [DL- Dihdroorotic acid]		
No	5%		CC(=O)NC(CC(=O)O)c1ccccc1 (racemic) [N-Acetyl-DL-Â- phenylalanine]		
No	6%		COc1cccc(C(=O)O)c1OC [2,3 Dimethoxybenzoic acid]		
Yes	35%	active	O=C(O)c1cccc(O)c1O [2,3- Dihydroxybenzoic acid]	active	
No	6%		O=C(O)c1cccnc1C(=O)O [2,3-Pyridine-dicarboxylic acid]		
No	6%		O=C(O)CNC(=O)c1ccco1 [2-Furoylglycine]		
No	10%		Nc1c(O)cccc1C(=O)O [3- Hydroxyanthranilic acid]		
No	12%		Cc1ncc(CO)c(C(=O)O)c1O [4-Pyridoxic Acid]		
No	3%		NCC(=O)CCC(=O)O [5-Aminolevulinic acid]		
No	4%		N[C@@H](Cc1c[nH]c2ccc(O)cc12)C(=O)O [5-Hydroxytryptophan]		
Yes	45%	active	O=C(O[C@@H]1Cc2c(O)cc(O)cc2O[C@@H]1c1cc(O)c(O)c(O)c1)c1cc(O)c(O)c(O)c1 [(−) Epigallocatechin gallate]	active	
No	7%		NC(=O)NC1NC(=O)NC1=O (centres unmarked) [Allantoin]		
Yes	73%	highest activities	Oc1cccc(O)c1O [Benzene 1,2,3 Trial (Pyrogallol)]		
No	3%		C=CC1=C(C)/C(=C/c2[nH]c(Cc3[nH]c(/C=C4\NC(=O)C(C)=C4C=C)c(C)c3CCC(=O)O)c(CCC(=O)O)c2C)NC1=O [Bilirubin]		
No	9%		C=CC1=C(C)C(/C=c2/[nH]/c(=C\c3[nH]c(/C=C4\NC(=O)C(C)=C4C=C)c(C)c3CCC(=O)O)c(CCC(=O)O)c2C)NC1=O (centres unmarked) [Biliverdin HCl]		
No	8%		O=C(/C=C/c1ccc(O)c(O)c1)OCCc1ccccc1 [Caffeic acid phenethyl ester]		

Fe: Chromatography [1]	NGAL: Chelator: Fe % Retention [2, 3]	NGAL-siderophore-Fe binding activity (in words) [2]	Compound	iron chelating activity by paper chromatography (in words) [1]	NGAL: Chelator: Fe % Retention ([2]; pH 7.4)
No	7%		O=C(O)/C=C/c1ccc(O)c(O)c1 [Caffeic acid]		
No	6%		O=S1(=O)Oc2ccccc2O1 [Catechol cyclic sulfonate]		
	6%		O=C(/C=C/c1ccc(O)c(O)c1)O[C@@H]1C[C@](O)(C(=O)O)C[C@@H](O)[C@H]1O [Chlorogenic acid]		
No	11%		O=C(O)/C=C(/CC(=O)O)C(=O)O [Cis-Aconitic acid]		
Yes	10%		N[C@@H](Cc1ccc(O)c(O)c1)C(=O)O [Dihydroxyphenyl alanine (L-DOPA)]	active	
Yes	24%	active	O=c1oc2c(O)c(O)cc3c(=O)oc4c(O)c(O)cc1c4c23 [Ellagic acid]	active	
	6%		Cc1cc2nc3c(=O)[nH]c(=O)nc-3n(C[C@H](O)[C@H](O)[C@H](O)COP(=O)(O)OP(=O)(O)OC[C@H]3O[C@@H](n4cnc5c(N)ncnc54)[C@H](O)[C@@H]3O)c2cc1C [FAD]		
No	3%		COc1cc(/C=C/C(=O)O)ccc1O [Ferulic acid]		
No	3%		Nc1nc2[nH]cc(CNc3ccc(C(=O)N[C@@H](CCC(=O)O)C(=O)O)cc3)nc-2c(=O)n1 [Folic acid]		
No	6%		O=C(O)c1cc(O)ccc1O [Gentistic Acid]		
No	4%		COc1ccccc1O [Guaiacol]		
No	7%		O=C(O)Cc1cc(O)ccc1O [Homogentisic acid]		
No	8%		N[C@@H](Cc1ccccc1)C(=O)O [L-Phenylalanine]		
No	28%	active	O=c1c(O)c(-c2cc(O)c(O)c(O)c2)oc2cc(O)cc(O)c12 [Myricetin]		
			O=C(O)CCC(=O)O [Succinic acid]		11%
	7%		O=c1cc[nH]c(=O)[nH]1 [Uracil]		
			β-Nicotinamide adenine	active	

Compound	Fe: Chromatography [1]	NGAL: Chelator: Fe % Retention [2, 3]	NGAL-siderophore-Fe binding activity (in words) [2]	iron chelating activity by paper chromatography (in words) [1]	NGAL: Chelator: Fe % Retention ([2]; pH 7.4)
NCC(=O)c1ccc(O)c(O)c1 (racemic) [DL- Norepinephrine•HCl]	No	5%			
O=C(O)CC(C(=O)O)C(O)C(=O)O (racemic) [Isocitric acid]	Yes				
COc1ccccc1OC [1,2-Dimethoxybenzene]	No	3%			
O=C(O)c1ccc(O)c(O)c1 [3,4- Dihydroxybenzoic Acid]	Yes	5%		active	
O=C(O)Cc1c[nH]c2ccc(O)cc12 [5-Hydroxy-indoleacetic acid]		7%			
NCCc1cc(O)c(O)c(O)c1 [5-Hydroxydopamine]	No	10%			
NCCc1cc(O)c(O)cc1O [6-Hydroxydopamine]	No	4%			
O=C([O-])CC(O)(CC(=O)[O-])C(=O)[O-].[Na+].[Na+].[Na+] [Citric acid sodium]	Yes	6%		active	
N[C@@H](Cc1c[nH]c2ccccc12)C(=O)O [L-Tryptophan]	No	5%			
C=CC1=C(C)c2cc3[nH]c(cc4nc(cc5[nH]c(cc1n2)c(C)c5CCC(=O)O)C(CCC(=O)O)=C4C)c(C)c3C=C [Protoporphyrin IX]		3%			
